Results as given in patent publication US20120029045A1, “METHOD FOR TREATING PORT WINE STAINS” (SHANGHAI FUDAN-ZHANGJIANG BIO-PHARMACEUTICAL CO., LTD., priority 2010, published 2012).

Assays:
[1] = Dynamic change of the concentration of HpD and HMME in chicken blood; type: in vivo; settings: 10 mg/kg neck vein
Method: HpD and HMME in chicken blood were monitored at various times after injection. HpD or HMME was injected in chicken neck veins at a dose of 10 mg/kg, taking a blood sample every 10 minutes following injection. […] The two curves shown in FIG. 2 have generally the same pattern.

[2] = Pharmacokinetics of HMME in human body; type: in vivo
Method: Porphyrin-based photosensitizing drugs were injected intravenously at a dose of 2.5 and 5.0 mg/kg body weight for 20 minutes with a constant flow rate, and the pharmokinetics measured. Blood samples were taken at 5, 10, 20, 25, 30, 40, 50, 80, 110, 140, 200, 260 and 380 minutes separately to measure the serum concentrations of porphyrin-based photosensitizing drugs.

[3] = PDT for PWS, adverse effects and crust levels; type: in vivo, human
Method: A solution of 1 ml saline was injected in the superficial vein (e.g. median cubital vein) of patients to ensure no liquid leaked into tissues adjacent to the blood vessels into which the injection was made. At the same site, HMME was injected intravenously for 20 minutes with a constant flow rate by using an infusion pump. The doses applied were 2.5 mg/kg body weight or 5.0 mg/kg body weight. Next, 2-4 ml of saline solution was again injected to prevent the drugs from aggregating locally. Irradiation with KTP532 laser was then applied to the patient's lesion site 0-10 minutes after the start of injection, for a total duration of irradiation of either 20 minutes (denoted as the 20 min group), or 30 minutes (denoted as the 30 minute group). […] When irradiation was started immediately after the start of injection, the overlap between the injection and irradiation was about 20 minutes, when irradiation started 5 minutes after the start of injection, the overlap between drug injection and light irradiation was approximately 15 minutes, and when irradiation was started 10 minutes after the start of injection, the overlap was about 10 minutes. The therapeutic results were measured 8 weeks after the treatment. The most common adverse temporary effects included swelling, burning, redness, pain, blister and crust formation in PDT for PWS and these symptoms occurred in almost every case. Scar or crust thickness was measured as thickening of crusts. The crust levels served as an assessment index for scars.

[4] = 2.5 mg/kg iv over 20 min at constant flow rate
[5] = 5.0 mg/kg iv over 20 min at constant flow rate
[6] = Part A, 5.0 mg/kg, patients treated for 20 min
[7] = Part B, 2.5 mg/kg group, irradiated 20 min
[8] = Part B, 5.0 mg/kg group, irradiated 20 min
[9] = Part B, 2.5 and 5.0 mg/kg, irradiated 20 min

time after injection at which serum concentration reaches a peak ([1]; chicken): 10 min
AUC0˜n [2, 4]: 6342 ± 2824 ng·h/mL
Cmax [2, 4]: 17491 ± 7045 ng/mL
t1/2 [2, 4]: 1.26 ± 0.33 h
AUC0˜n [2, 5]: 17531 ± 3467 ng·h/mL
Cmax [2, 5]: 35724 ± 4539 ng/mL
t1/2 [2, 5]: 1.31 ± 0.33 h
Substance: hematoporphyrin monomethyl ether [HMME]
Photosensitizer concentration in chicken blood ([1]; post-injection time 10 min): 6.83 µg/mL
Photosensitizer concentration in chicken blood ([1]; post-injection time 20 min): 5.92 µg/mL
Photosensitizer concentration in chicken blood ([1]; post-injection time 30 min): 5.33 µg/mL
Photosensitizer concentration in chicken blood ([1]; post-injection time 40 min): 4.83 µg/mL
Photosensitizer concentration in chicken blood ([1]; post-injection time 50 min): 4.49 µg/mL
Photosensitizer concentration in chicken blood ([1]; post-injection time 60 min): 4.17 µg/mL
Photosensitizer concentration in chicken blood ([1]; post-injection time 70 min): 3.83 µg/mL
Photosensitizer concentration in chicken blood ([1]; post-injection time 80 min): 3.58 µg/mL
Photosensitizer concentration in chicken blood ([1]; post-injection time 90 min): 3.51 µg/mL
Photosensitizer concentration in chicken blood ([1]; post-injection time 100 min): 2.67 µg/mL
Photosensitizer concentration in chicken blood ([1]; post-injection time 110 min): 2.42 µg/mL
Photosensitizer concentration in chicken blood ([1]; post-injection time 120 min): 1.99 µg/mL
Blister, Mild (cases) ([3]; 5.0 mg/kg, 20 min group): 0
Blister, Moderate (cases) ([3]; 5.0 mg/kg, 20 min group): 0
Blister, Rate (%) ([3]; 5.0 mg/kg, 20 min group): 0.0%
Blister, total (cases) ([3]; 5.0 mg/kg, 20 min group): 10
Burning, Mild (cases) ([3]; 5.0 mg/kg, 20 min group): 0
Burning, Moderate (cases) ([3]; 5.0 mg/kg, 20 min group): 0
Burning, Rate (%) ([3]; 5.0 mg/kg, 20 min group): 0.0%
Burning, total (cases) ([3]; 5.0 mg/kg, 20 min group): 0
Pain, Mild (cases) ([3]; 5.0 mg/kg, 20 min group): 1
Pain, Moderate (cases) ([3]; 5.0 mg/kg, 20 min group): 9
Pain, Rate (%) ([3]; 5.0 mg/kg, 20 min group): 50.0%
Pain, total (cases) ([3]; 5.0 mg/kg, 20 min group): 10
Redness, Mild (cases) ([3]; 5.0 mg/kg, 20 min group): 0
Redness, Moderate (cases) ([3]; 5.0 mg/kg, 20 min group): 0
Redness, Rate (%) ([3]; 5.0 mg/kg, 20 min group): 0.0%
Redness, total (cases) ([3]; 5.0 mg/kg, 20 min group): 0
Swelling, Mild (cases) ([3]; 5.0 mg/kg, 20 min group): 9
Swelling, Moderate (cases) ([3]; 5.0 mg/kg, 20 min group): 9
Swelling, Rate (%) ([3]; 5.0 mg/kg, 20 min group): 90.0%
Swelling, total (cases) ([3]; 5.0 mg/kg, 20 min group): 18
crust level Moderate thick and fractional, (%) ([3]; 5.0 mg/kg, 20 min group): (5.0) %
crust level Moderate thick and full, (%) ([3]; 5.0 mg/kg, 20 min group): (0.0) %
crust level None, (%) ([3]; 5.0 mg/kg, 20 min group): (25.0) %
crust level Thin and fractional, (%) ([3]; 5.0 mg/kg, 20 min group): (50.0) %
crust level Thin and full, (%) ([3]; 5.0 mg/kg, 20 min group): (20.0) %
Blister, Mild (cases) ([3]; 5.0 mg/kg, 30 min group): 2
Blister, Moderate (cases) ([3]; 5.0 mg/kg, 30 min group): 0
Blister, Rate (%) ([3]; 5.0 mg/kg, 30 min group): 10.0%
Blister, total (cases) ([3]; 5.0 mg/kg, 30 min group): 2
Burning, Mild (cases) ([3]; 5.0 mg/kg, 30 min group): 0
Burning, Moderate (cases) ([3]; 5.0 mg/kg, 30 min group): 1
Burning, Rate (%) ([3]; 5.0 mg/kg, 30 min group): 5.0%
Burning, total (cases) ([3]; 5.0 mg/kg, 30 min group): 1
Pain, Mild (cases) ([3]; 5.0 mg/kg, 30 min group): 3
Pain, Moderate (cases) ([3]; 5.0 mg/kg, 30 min group): 12
Pain, Rate (%) ([3]; 5.0 mg/kg, 30 min group): 75.0%
Pain, total (cases) ([3]; 5.0 mg/kg, 30 min group): 15
Redness, Mild (cases) ([3]; 5.0 mg/kg, 30 min group): 0
Redness, Moderate (cases) ([3]; 5.0 mg/kg, 30 min group): 2
Redness, Rate (%) ([3]; 5.0 mg/kg, 30 min group): 10.0%
Redness, total (cases) ([3]; 5.0 mg/kg, 30 min group): 2
Swelling, Mild (cases) ([3]; 5.0 mg/kg, 30 min group): 6
Swelling, Moderate (cases) ([3]; 5.0 mg/kg, 30 min group): 12
Swelling, Rate (%) ([3]; 5.0 mg/kg, 30 min group): 90.0%
Swelling, total (cases) ([3]; 5.0 mg/kg, 30 min group): 18
crust level Moderate thick and fractional, (%) ([3]; 5.0 mg/kg, 30 min group): (5.0) %
crust level Moderate thick and full, (%) ([3]; 5.0 mg/kg, 30 min group): (15.0) %
crust level None, (%) ([3]; 5.0 mg/kg, 30 min group): (15.0) %
crust level Thin and fractional, (%) ([3]; 5.0 mg/kg, 30 min group): (25.0) %
crust level Thin and full, (%) ([3]; 5.0 mg/kg, 30 min group): (40.0) %
severity of adverse effects ([3]; Part A, 5.0 mg/kg, irradiation 20 or 30 min): mild or moderate
scars [3, 6]: no scars were present
serious-thick crusts [3, 6]: No serious-thick crusts occurred
Crust Total, Rate (%) [3, 7]: 34.7%
Crust level Mild, Rate (%) [3, 7]: 34.7%
Crust level Moderate, Rate (%) [3, 7]: 0.0%
Crust level Serious, Rate (%) [3, 7]: 0.0%
Crust Total, Rate (%) [3, 8]: 88.01%
Crust level Mild, Rate (%) [3, 8]: 60.0%
Crust level Moderate, Rate (%) [3, 8]: 28.0%
Crust level Serious, Rate (%) [3, 8]: 0.0%
scars [3, 9]: no scars were formed
serious-thick crusts [3, 9]: No serious-thick crusts occurred
